Where two headings read alike, the source gives them in different places.
Assays:
NCI H460 xenograft = test: H460 xenograft mouse model with CDDP (Example 51); type: in vivo; settings: 50 mg/kg daily or 100 mg/kg every three days, saline formulation
Procedure: Female CB17/SCID mice (purchased from Charles River, Cambridge, Mass.), 7-8 weeks of age, were allowed to acclimatize for at least three days, and handled under pathogen-free conditions. Human non-small cell lung carcinoma cell line NCI H460 was obtained from the American Type Culture Collection. The cell lines were cultured and harvested as described in Example 47 above, and inoculated at 3×10^6 cells/animal in the peritoneal subcutaneous space. When the tumors grew to an average volume of 100 mm^3, treatment was initiated in which groups of 10 mice received vehicle (Group 1), CDDP at 3 or 6 mg/kg (Groups 2 and 3, respectively, IV one time), Compound 25 at 50 mg/kg in saline 5 times per week for two weeks (Group 4), Compound 25 at 100 mg/kg every three days for 5 times (Group 5) or the combination of each dose of Compound 25 with either 3 or 6 mg/kg of CDDP (Groups 6 and 7, respectively). Results for groups receiving 50 mg/kg of Compound 25 are illustrated in the FIG. 1.

spheroids = test: Spheroid combination with cisplatin or daunorubicin, clonogenic survival; type: cell-based, human; settings: Homo sapiens, 2 h exposure
Procedure: The phosphoramidate alkylator prodrug was combined simultaneously with cisplatin or daunorubicin and the spreroids exposed for 2 h to the combination, followed by measurement of clonogenic survival.

H460 xenograft = H460 xenograft in nude mice, ip bolus or ip infusion with Cisplatin (Example 54); type: in vivo, mouse; settings: alone or in combination with CDDP
Procedure: Example 54 describes efficacy of Compound 25 via an ip bolus injection or ip infusion alone or in combination with Cisplatin in the H460 xenograft mouse model. Female Nu-Foxn1^nu homozygous nu/nu mice (purchased from Charles River, Cambridge, Mass.), 6 weeks of age, were allowed to acclimatize for at least three days, and handled under pathogen-free conditions. Human H460 cells were obtained from the American Type Culture Collection. The cell lines were cultured and harvested as described in Example 47 and inoculated at 3×10^6 cells/animal in the peritoneal subcutaneous space. When the tumors grew to an average volume of 100 mm^3 (day 8), each group of mice (ten per group) was administered, for three weeks, as tabulated in the table below: Compound 25 (formulated as a 15 mg/ml saline solution, administration route—i.p., administrated 2 h before CDDP on the days the combination therapy is scheduled) and CDDP in saline, IV.
The body weight and tumor volume was determined as described in Example 47.

UV41 = test: Clonogenic survival - DNA mutant repair cells; settings: Cricetulus griseus
HT29 spheroids = test: Spheroid model, clonogenic survival; type: cell-based; settings: Homo sapiens, HT-29, read-out: IC90 HT29 Spheroid 10% O2
[1] = test system: human (HLM) liver microsomal proteins; test: Metabolic stability in liver microsomal protein; type: in vitro ADME; settings: Table 2A, second study, 5 μM
HT29 cells = test: Antiproliferation assay - oxygen dependence; type: cell-based; settings: Homo sapiens
From the text: . […] The calculated IC50 values (μM) are tabulated in Table Y1 (H460 cells) or Table Y2 (HT29 cells) below.

human H460 cells = test: Clonogenic survival assay, hypoxia vs normoxia (Table 1A); settings: for IC90: Homo sapiens
in vivo = settings: CD-1, mouse, 50 mg/kg
[2] = test system: HT-29 human colon carcinoma xenograft; test: HT-29 human colon carcinoma xenograft mouse model (Example 47); type: in vivo; settings: for % Inhibition vs Group 1: vs vehicle
Procedure: Female CB17/SCID mice (purchased from Charles River, Cambridge, Mass.), 7-8 weeks of age, were allowed to acclimatize for at least three days, and handled under pathogen-free conditions. Human colon carcinoma cell line HT-29 was obtained from the American Type Culture Collection. The cell lines were cultured in RPMI 1640 media supplemented with 10% fetal bovine serum. Cells were maintained in a 37° C. incubator with 5% CO2. The HT-29 cells were harvested from culture and inoculated at 3×10^6 cells/animal in the peritoneal subcutaneous space. When the tumors grew to an average volume of 100 mm^3 (day 8), each group of 10 mice was administered, for three weeks, vehicle alone (saline and PEG (10 mL/kg each), Group 1), Compound 36 alone (dissolved in 30% cyclodextrin in PBS) at a daily dose of 20, 60, or 200 mg/kg (Groups 2, 3 and 4, respectively), and Compound 36 at a daily dose of 20, 60, and 200 mg/kg given 2-3 hours after a dose of 10 mg/kg of 5FU (in saline) (Group 5, 6 and 7, respectively) and compared to a group receiving only 5FU at 10 mg/kg (Group 8) as tabulated below.
The body weight of each mouse was recorded twice per week. Growth of each xenograft was monitored by externally measuring tumors in two dimensions using a digital caliper twice per week. Tumor volume (V) was determined by the following equation: V=(L×W^2)/2, where L is the length and W is the width of a xenograft. Tumor volumes were measured twice weekly.

## Cn1c(COP(=O)(NCCBr)NCCBr)cnc1[N+](=O)[O-] [Compound 25]
NCI H460 xenograft
  tumor volume and tumor growth delay: significant dose related decrease in tumor volume and increase in tumor growth delay
spheroids; read-out: IC50 (μM), spheroids, cisplatin combination experiment
  IC50: 12 µM
spheroids; read-out: IC50 (μM), spheroids, daunorubicin combination experiment
  IC50: 9 µM
H460 xenograft
  efficacy of continuous application: efficacious
UV41; read-out: IC90 UV41 Air
  IC90: 17 µM
UV41; read-out: IC90 UV41 N2
  IC90: 0.02 µM
HT29 spheroids
  IC90: 29 µM
[1]
  Metabolic stability (% at 30 min) HLM: 127%
HT29 cells; HT-29, read-out: IC50 in HT29 cells, 0.6% O2
  IC50: 25 µM
HT29 cells; HT-29, read-out: IC50 in HT29 cells, Air
  IC50: > 100 µM
HT29 cells; HT-29, read-out: IC50 in HT29 cells, N2
  IC50: 2 µM

## Cn1c(COP(=O)(NCCCl)NCCCl)cnc1[N+](=O)[O-] [Compound 36]
Human H460 cells; NCI-H460, read-out: Hypoxia C (clonogenic IC90)
  IC90: 0.2 µM
Human H460 cells; NCI-H460, read-out: Normoxia C (clonogenic IC90)
  IC90: > 100 µM
Human H460 cells; ratio of IC90 in normoxia and hypoxia
  HCR C: >500
In vivo; ip
  AUC: 1440 µg·h/mL
  Cmax: 44000 ng/mL
  Tmax: 15 min
  half-life: 11 min
In vivo; iv
  AUC: 646 µg·h/mL
  Cmax: 27700 ng/mL
  Tmax: 5 min
  half-life: 14.1 min
[2]; Group 2: Compound 36 20 mg/kg daily, 3 weeks
  % Inhibition vs Group 1: 34.6%
[2]; Group 3: Compound 36 60 mg/kg daily
  % Inhibition vs Group 1: 16.1%
[2]; Group 4: Compound 36 200 mg/kg daily
  % Inhibition vs Group 1: 20.2%
[2]; particularly high dose group
  body weight and mortality: some degree of weight loss and occasional mortality
